Experimental data as given in patent US20240116946A1 (Gilead Sciences, Inc., priority 2022, published 2024).
Like-named read-outs stand apart in the source and are kept apart here.

How the values were obtained:
[1] = system: SARS-CoV-2-NLuc; assay: microbe, parasite or virus in culture; format: cell-based, SARS Coronavirus 2
[2] = target: recombinant SARS-CoV-2 Main protease (Mpro) (Severe acute respiratory syndrome coronavirus 2 (2019-nCoV) (SARS-CoV-2), UniProt P0DTD1); assay: Cov Mpro Biochemical IC50 Assay; settings: read-out: MPro IC50
[3] = recombinant SARS-CoV-2 Mpro 7.5 nM, fluorogenic peptide substrate 40 μM
[4] = Severe acute respiratory syndrome coronavirus, 48 h, read-out: MPro EC50
[5] = Severe acute respiratory syndrome coronavirus, 48 h; read-out: MPro EC50
[6] = recombinant SARS-CoV-2 Mpro, fluorogenic peptide substrate

SMILES | EC50 ([1]; read-out: MPro EC50) [µM] | IC50 [2, 3] [µM] | EC50 [1, 4] [µM] | EC50 [1, 5] [µM] | IC50 [2, 6] [µM]
COc1cc(-c2cc3c(s2)c(=O)n(-c2cncc4nc(C)n(C)c24)c(=O)n3CCC#N)c(Cl)cc1F (single isomer, unassigned) [Example 969, 3-(6-(2-chloro-4-fluoro-5-methoxyphenyl)-3-(1,2-dimethyl-1H-imidazo[4,5-c]pyridin-7-yl)-2,4-dioxo-3,4-dihydrothieno[3,2-d]pyrimidin-1(2H)-yl)propanenitrile] | > 1 | > 1 | – | – | –
COc1ccc(Cl)c(-c2cc3[nH]c(=O)n(-c4cncc5ccc(N6CCC(F)(F)C6)cc45)c(=O)c3s2)c1 [Example 414] | – | 0.00763 | 0.0201 | – | –
COc1cc(-c2cc3[nH]c(=O)n(-c4c(C)ccnc4F)c(=O)c3s2)c(Cl)cc1F [Example 738] | – | 0.0134 | – | 0.0262 | –
O=c1[nH]c2cc(-c3ccccc3Cl)sc2c(=O)n1-c1cncc(C(F)(F)F)c1 [Example 576, 6-(2-chlorophenyl)-3-(5-(trifluoromethyl)pyridin-3-yl)thieno[3,2-d]pyrimidine-2,4(1H,3H)-dione] | – | 0.174 | – | 0.153 | –
COc1cncc(-n2c(=O)c3sc(-c4cc(OC)c(F)cc4Cl)cc3n(CCC#N)c2=O)c1 [Example 870] | – | 0.00289 | 0.00341 | – | –
Cc1ccccc1-c1cnc2c(=O)n(-c3cncc4ccccc34)c(=O)[nH]c2c1 [Example 46] | – | – | – | 0.989 | 0.216
COc1ccc(Cl)c(-c2ccc3c(=O)n(-c4cncc5ccc(N6CC[C@H](OC)C6)cc45)c(=O)[nH]c3c2)c1 [Example 409] | – | 0.0157 | 0.0774 | – | –
O=c1[nH]c2cc(-c3c(Cl)cccc3-c3ccc4ncnn4c3)ccc2c(=O)n1-c1cncc2ccccc12 [Example 241] | – | – | 0.054 | – | 0.035
CN1C(=O)CCc2cc(-c3cccc(Cl)c3-c3ccc4c(=O)n(-c5cncc6ccccc56)c(=O)[nH]c4c3)ccc21 [Example 307] | – | – | 0.0104 | – | 0.0169
N#Cc1ccc(Cl)cc1-c1cc2[nH]c(=O)n(-c3cncc4ccccc34)c(=O)c2s1 [Example 685] | – | 0.012 | 0.0692 | – | –
N#CCCn1c(=O)n(-c2cncc3ccccc23)c(=O)c2sc(-c3cc(Cl)ccc3C#N)cc21 [Example 821] | – | 0.00675 | 0.0115 | – | –
N#Cc1ncccc1-c1ccc2c(=O)n(-c3cncc4ccccc34)c(=O)[nH]c2c1 [Example 62] | – | – | 3.15 | – | 0.904
COc1ccc(Cl)c(-c2cc3[nH]c(=O)n(-c4cncc5c(F)cccc45)c(=O)c3s2)c1 [Example 585] | – | 0.0101 | 0.0293 | – | –
COc1ccc(C#N)c(-c2cc3[nH]c(=O)n(-c4cncc5ccc(N6CCOCC6)cc45)c(=O)c3cc2F)c1 [Example 435] | – | 0.00697 | 0.0374 | – | –
O=c1[nH]c2cc(-c3cc(OC(F)(F)F)ccc3Cl)sc2c(=O)n1-c1cncc2ccccc12 [Example 344] | – | – | 0.374 | – | 0.11
O=c1[nH]c2cc(-c3c(Cl)cccc3-c3cnn4c3CNCC4)ccc2c(=O)n1-c1cncc2ccccc12 [Example 474] | – | 0.014 | 0.124 | – | –
COc1cccc(C#N)c1-c1cc2[nH]c(=O)n(-c3cncc4cnn(C)c34)c(=O)c2s1 [Example 839, 3-methoxy-2-(3-(1-methyl-1H-pyrazolo[4,3-c]pyridin-7-yl)-2,4-dioxo-1,2,3,4-tetrahydrothieno[3,2-d]pyrimidin-6-yl)benzonitrile] | – | 0.0913 | 0.463 | – | –
N#CCCn1c(=O)n(-c2cnccn2)c(=O)c2sc(-c3ccccc3C#N)cc21 [Example 830] | – | 0.35 | – | > 1 | –
N#CCCn1c(=O)n(-c2cncc3cccc(F)c23)c(=O)c2sc(-c3ccccc3Cl)cc21 [Example 1084] | – | 0.00762 | 0.0117 | – | –
N#CCCn1c(=O)n(-c2cncc(CO)c2)c(=O)c2sc(-c3ccccc3C#N)cc21 [Example 1101] | – | 0.0363 | > 1 | – | –
COc1cccc(C#N)c1-c1cc2c(s1)c(=O)n(-c1cncc3cnn(C)c13)c(=O)n2CCC#N [Example 838, 2-(1-(2-cyanoethyl)-3-(1-methyl-1H-pyrazolo[4,3-c]pyridin-7-yl)-2,4-dioxo-1,2,3,4-tetrahydrothieno[3,2-d]pyrimidin-6-yl)-3-methoxybenzonitrile] | – | 0.0325 | 0.115 | – | –
O=c1[nH]c2cc(-c3c(Cl)cccc3-c3cn(CC(F)F)nn3)ccc2c(=O)n1-c1cncc2ccccc12 [Example 292] | – | – | 0.169 | – | 0.12

SMILES | EC50 ([1]; read-out: MPro EC50) [µM] | IC50 [2, 3] [µM] | EC50 [1, 4] [µM] | EC50 [1, 5] [µM] | IC50 [2, 6] [µM]
COc1cc(-c2cc3c(s2)c(=O)n(-c2cncc4ccccc24)c(=O)n3CCCC#N)c(Cl)cc1F [Example 660] | – | 0.0176 | 0.0167 | – | –
COc1cc(-c2cc3[nH]c(=O)n(-c4cncc5c4n(C)c(=O)n5C)c(=O)c3s2)c(Cl)cc1F [Example 750] | – | 0.00776 | 0.0366 | – | –
COc1ccc(Cl)c(-c2cc3[nH]c(=O)n(-c4cncc5sc(C(C)(C)O)cc45)c(=O)c3s2)c1 [Example 515] | – | 0.00851 | 0.0175 | – | –
Cc1cc(-c2cccc(Cl)c2-c2ccc3c(=O)n(-c4cncc5ccccc45)c(=O)[nH]c3c2)ccc1C(N)=O [Example 244] | – | – | 0.041 | – | 0.0181
O=c1[nH]c2cc(-c3ccccc3Cl)ccc2c(=O)n1-c1cncnc1 [Example 123] | – | – | 47 | – | > 100
Cn1cnc(Cn2c(=O)n(-c3cncc4ccccc34)c(=O)c3sc(-c4ccccc4Cl)cc32)n1 [Example 153, 6-(2-chlorophenyl)-3-(4-isoquinolyl)-1-[(1-methyl-1,2,4-triazol-3-yl)methyl]thieno[3,2-d]pyrimidine-2,4-dione] | – | – | 0.0661 | – | 0.0185
O=c1[nH]c2cc(-c3c(Cl)cccc3-c3ccnnc3)ccc2c(=O)n1-c1cncc2ccccc12 [Example 101, 7-(2-chloro-6-(pyridazin-4-yl)phenyl)-3-(isoquinolin-4-yl)quinazoline-2,4(1H,3H)-dione] | – | – | – | 0.0738 | 0.0137
Cc1ccc(C#N)cc1-c1cc2[nH]c(=O)n(-c3cncc4ccccc34)c(=O)c2s1 [Example 546] | – | 0.0154 | 0.164 | – | –
CC1(O)CN(c2ccc3cncc(-n4c(=O)[nH]c5cc(-c6ccccc6Cl)sc5c4=O)c3c2)C1 [Example 390] | – | – | 0.0191 | – | 0.0116
Cn1cc2ccc(-c3cc4[nH]c(=O)n(-c5cncc6ccccc56)c(=O)c4s3)cc2n1 [Example 10] | – | – | 20 | – | 13.7
COc1ccc(Cl)c(-c2cc3[nH]c(=O)n(-c4cncc(CC(=O)N5CCOCC5)c4)c(=O)c3s2)c1 [Example 612] | – | 0.0122 | > 1 | – | –
O=c1c2sc(-c3cccc4c3CCC4)cc2n(Cc2ccc(O)cc2)c(=O)n1-c1cncc2ccccc12 [Example 169] | 0.744 | – | – | – | 5.55
O=c1[nH]c2cc(-c3c(Cl)cccc3Cl)ccc2c(=O)n1-c1cncc2ccccc12 [Example 95, 7-(2,6-dichlorophenyl)-3-(isoquinolin-4-yl)quinazoline-2,4(1H,3H)-dione] | – | – | – | 0.68 | 1.59
O=C1Nc2ccc(-c3cccc(Cl)c3-c3ccc4c(=O)n(-c5cncc6ccccc56)c(=O)[nH]c4c3)cc2C1(F)F [Example 173] | – | – | 0.65 | – | 0.38
COc1cc(F)c(Cl)c(-c2ccc3c(=O)n(-c4cncc5ccccc45)c(=O)[nH]c3c2)c1 [Example 212] | – | – | 0.752 | – | 0.831
COc1ccc(Cl)c(-c2ccc3c(=O)n(-c4cncc5ccc(OC)cc45)c(=O)[nH]c3c2)c1 [Example 238] | – | – | – | 0.0545 | 0.048
Cn1ncc2cncc(-n3c(=O)c4sc(C5C(Cl)=CC(Cl)=C6OCCC65)cc4n(CCC#N)c3=O)c21 (centres unmarked) [Example 1021] | – | 0.0155 | 0.0372 | – | –
COc1cc(-c2cc3c(s2)c(=O)n(-c2cncc4cnn(C)c24)c(=O)n3CCC#N)c(C#N)cc1F [Example 999, 2-(1-(2-cyanoethyl)-3-(1-methyl-1H-pyrazolo[4,3-c]pyridin-7-yl)-2,4-dioxo-1,2,3,4-tetrahydrothieno[3,2-d]pyrimidin-6-yl)-5-fluoro-4-methoxybenzonitrile] | – | 0.00715 | – | 0.0157 | –
COc1ccc(C#N)c(-c2cc3[nH]c(=O)n(-c4cncc(C)c4OCC(F)(F)F)c(=O)c3s2)c1 [Example 225] | – | – | 0.0877 | – | 0.0121
COc1cc(-c2cc3c(s2)c(=O)n(-c2cncc4ccc(C)nc24)c(=O)n3CCC#N)c(Cl)cc1F [Example 906] | – | 0.00435 | 0.00241 | – | –
O=c1[nH]c2cc(-c3ccccc3Cl)c(F)cc2c(=O)n1-c1cncc2ccccc12 [Example 37] | – | – | 0.17 | – | 0.248
